{
  "source": "paper PMC5772648",
  "about": "“Targeted NUDT5 inhibitors block hormone signaling in breast cancer cells” (Nature Communications, 2018)",
  "key": {"human NUDT5": {"target": "T1, human NUDT5 (Homo sapiens, UniProt Q9UKK9)", "T1 construct": "His-tag (N); made in house; host or cells: E. coli BL21 (DE3) R3 pRARE2", "assay": "enzyme-coupled malachite green assay (MG assay), ADPR hydrolysis", "format": "biochemical", "details": "for IC50: NUDT5, ADPR substrate", "from_the_text": "We next sought to develop small molecule NUDT5 inhibitors to further probe the role of NUDT5 in ADPR metabolism. A high-throughput, screening-compatible NUDT5 inhibition assay was established using slight modifications to the aforementioned MG procedure (Fig. 2a)[15],[27]. Briefly, ADPR, NUDT5 and calf intestinal alkaline phosphatase (CIP) were combined in a coupled enzymatic assay, as described in the online methods. In turn, ADPR was hydrolyzed to AMP and R5P by NUDT5, and the released R5P was further degraded to ribose and inorganic phosphate (Pi) by CIP. Free Pi was subsequently detected using the malachite green reagent. The screen was conducted using a combination of the Chemical Biology Consortium of Sweden (CBCS) primary screening set and several commercial libraries from Enamine, TimTec, Maybridge and ChemDiv. In total, ~72 000 distinct chemical entities were screened for their potential inhibition of NUDT5 at a concentration of 10 µM (Supplementary Table 1, Supplementary Fig. 2a, b). Execution of this screening campaign was split between two different occasions. The screening performance in the two screening campaigns was excellent (average z´ factors of 0.87 and 0.85, Supplementary Fig. 2c), resulting in a hit limit as defined by the average and three standard deviations of the library compound responses of 10.1 and 18.4% inhibition, respectively (Supplementary Table 1, Supplementary Fig. 2a, b). This translated to 53 and 475 hits (0.3 and 0.8% hit rate, respectively), yielding 528 total hits from the 2 separate screening occasions.\nActivity of NUDT5 and MTH1 with a panel of potential substrates [2-OH-ATP, 2-OH-dATP, 8-oxo-dGDP, GDP and 8-oxo-GTP (Jena Biosciences), 8-oxo-dGTP (TriLink Biotechnologies), dATP (ThermoFisher Scientific), dGTP, GTP and ADPR (Sigma-Aldrich)] was assessed in reaction buffer (100 mM Tris Acetate pH 7.5, 40 mM NaCl, 10 mM Mg Acetate) at 22 °C. For ADPR, alkaline phosphatase from bovine intestinal mucosa (10 U/ml; Sigma-Aldrich) was added as coupled enzyme, while other substrates were coupled to E. coli pyrophosphatase (0.2 U/mL, Sigma-Aldrich). After 30 min incubation with shaking, formed inorganic phosphate was detected by addition of malachite green reagent. Absorbance at 630 nm was read after 15 min incubation with shaking using a Hidex Sense plate reader. The potency of NUDT5 inhibitors was assessed similarly as above (and in the screening campaign) by monitoring ADPR hydrolysis; details are in the Supplementary Information.\nSmall molecule library composition\nThe screen for NUDT5 inhibitors was conducted at Chemical Biology Consortium Sweden (www.cbcs.se). Two screening campaigns completed in August 2012 and in March 2013 respectively comprised a combination of in-house and commercially available libraries, amounting to a total of 75679 compounds. The commercial compounds originate from Enamine, TimTec, MayBridge and ChemDiv. The in-house libraries were donated by Biovitrum AB, Sweden (the origin and composition is described previously)2. For long-term storage, the compounds are kept frozen at - 20°C as 10 mM solutions in dimethyl sulfoxide (DMSO) under low humidity conditions in REMP 96 Storage Tube Racks in a REMP Small-Size Store™. To facilitate screening an aliquot of the stock solutions have been transferred to Labcyte 384 LDV plates (LP-0200) to enable dispensing using an Echo 550™ acoustic liquid handler (LabCyte). For both screening campaigns 40 nl of the compound solutions were dispensed directly into columns 1-22 of the 384-well assay plates (Nunc 242757), while columns 23 and 24 were reserved for controls as outlined below. The plates were sealed with a Peelable Aluminium seal (Agilent 24210-001) using a PlateLoc thermal microplate sealer (Agilent) and kept at room temperature until used. The final compound concentration in the screen was 10 µM with a final DMSO concentration of […]\nEnzymatic assay applied for screening and hit confirmation […]"}, "[1]": {"target": "T2, NUDT5 in HL-60 cell lysates (Homo sapiens, UniProt Q9UKK9)", "T2 construct": "endogenous in cells; host or cells: HL-60", "assay": "cell lysate CETSA (HT-CETSA)", "format": "binding", "details": "20 µM, 83 °C", "protocol": "Target engagement in cells was determined by the cellular thermal shift assay (CETSA)[29]. Briefly, cell lysate thermal shift assays were performed with 1 × 10^6 HL-60 cells per temperature/condition. Cells were collected and washed once with PBS and resuspended in TBS with protease inhibitor cocktail (Mini cOmplete, EDTA-free, Roche) at 60 µL/1 × 10^6 cells. The cells were then aliquoted and lysed by freeze-thawing three times with 3-min incubations (3x, 3 min.+3 min.) using an ethanol/dry ice bath and water bath at 37 °C. The lysates were then centrifuged at 20,000×g for 20 min at 4 °C to remove cellular debris. Supernatants were then transferred to PCR strip tubes and treated with 0.5 µL DMSO (0.8% v/v final) or 20 µM inhibitor for 20 min at room temperature. Lysates with compounds were heated at the indicated temperature in a Veriti Thermal Cycler (Applied Biosystems) for 3 min, then cooled for another 3 min at room temperature. They were then centrifuged at 20 000 × g for 20 min at 4 °C to pellet protein aggregates and 45 µL was removed and prepared for western blotting analysis."}, "[2]": {"target": "T3, NUDT5 in intact HL-60 cells (Homo sapiens, UniProt Q9UKK9)", "T3 construct": "endogenous in cells; host or cells: HL-60", "assay": "intact cell CETSA", "format": "cell-based", "details": "20 µM, 83 °C", "protocol": "For CETSA experiments with cells treated in culture, 1 × 10^6 HL-60 were treated with DMSO (0.1 % v/v final) or 20 µM compound for 3 h at 37 °C and 5% CO2 in a humidified incubator. T47D^WT cells were treated instead with 80 µM TH1659, 15 µM TH5423/5424 and 1.5 µM TH5427. The cells were harvested, washed twice with PBS and resuspended in TBS with protease inhibitors, as above. Heating was identical as before, except that immediately following heating, the cell suspensions were snap frozen in a dry ice/ethanol bath and freeze-thawed, as previously, to lyse cells. Centrifugation at 20 000 × g for 20 min at 4 °C removed cellular debris and protein aggregates, and lysates were prepared for western blotting."}, "purified NUDT5": {"target": "T4, purified NUDT5 (Homo sapiens, UniProt Q9UKK9)", "T4 construct": "His-tag (N); made in house; host or cells: E. coli BL21 (DE3) R3 pRARE2", "assay": "differential scanning fluorimetry (DSF)", "format": "binding", "details": "20 µM compound; for Tm: DMSO 74; for ΔTm at 20 µM: read-out: shift in melting temperature (Tm)", "protocol": "Differential scanning fluorimetry (DSF)[5],[47] was performed with 5 µM purified NUDT5, 20 µM NUDT5 inhibitor and 5x Sypro Orange added per well added to a 96-well PCR plate. Each experiment was performed in duplicate. Temperature gradients from 25 to 95 °C (increasing at a rate of 1 °C per minute) were completed with readings every minute on a CFX96 Real-Time PCR machine (Bio-Rad). Melting temperatures were determined as the minimum of the negative first derivative plots with CFX Maestro software (Bio-Rad)."}, "solubility": {"assay": "solubility", "format": "physicochemical"}, "[3]": {"details": "read-out: MG assay IC50 (Biochemical IC50)"}},
  "note": "Like-named read-outs stand apart in the source and are kept apart here.",
  "data": [
    {"smiles": "O=c1cc(N2CCOCC2)oc2c(-c3ccccc3)cccc12", "note": "[LY294002, reference compound]", "values": [
      {"measurement": "IC50", "setting": "human NUDT5; read-out: MG assay IC50", "value": "> 100000", "unit": "nM"}
    ]},
    {"smiles": "Cc1cccc(-c2nnc(Cn3cnc4c3c(=O)n(C)c(=O)n4C)o2)c1", "note": "[TH1167]", "values": [
      {"measurement": "IC50", "setting": "human NUDT5; read-out: MG assay IC50", "value": 580, "unit": "nM"},
      {"measurement": "NUDT5 stabilization in cell lysates", "setting": "[1]", "value": "did not show sufficient target engagement"},
      {"measurement": "NUDT5 stabilization in intact cells", "setting": "[2]", "value": "did not show sufficient target engagement"}
    ]},
    {"smiles": "Cn1c(=O)c2c(ncn2Cc2nnc(-c3ccc(Cl)c(Cl)c3)o2)n(C)c1=O", "note": "[TH1533]", "values": [
      {"measurement": "MG assay potency compared with TH1713", "setting": "human NUDT5", "value": "equipotent with TH1713"},
      {"measurement": "IC50", "setting": "human NUDT5; [3]", "value": 70, "unit": "nM"},
      {"measurement": "Tm", "setting": "purified NUDT5", "value": 79, "unit": "°C"},
      {"measurement": "ΔTm at 20 µM", "setting": "purified NUDT5", "value": 5, "unit": "°C"},
      {"measurement": "NUDT5 stabilization in intact cells", "setting": "[2]", "value": "showed activity by CETSA in intact cells"},
      {"measurement": "solubility", "setting": "solubility", "value": "very poor solubility"}
    ]},
    {"smiles": "Cc1cccc(-c2nnc(Cn3c(N(C)C)nc4c3c(=O)n(C)c(=O)n4C)o2)c1", "note": "[TH1713]", "values": [
      {"measurement": "fold greater potency over TH1167", "setting": "human NUDT5; MG assay", "value": "more than 8 fold"},
      {"measurement": "IC50", "setting": "human NUDT5; [3]", "value": 70, "unit": "nM"},
      {"measurement": "Tm", "setting": "purified NUDT5", "value": 79, "unit": "°C"},
      {"measurement": "ΔTm at 20 µM", "setting": "purified NUDT5", "value": 5, "unit": "°C"},
      {"measurement": "NUDT5 stabilization in intact cells", "setting": "[2]", "value": "only TH1533 showed activity by CETSA in intact cells"},
      {"measurement": "solubility", "setting": "solubility", "value": "very poor solubility"}
    ]},
    {"smiles": "COc1ccc2c(c[n+](C)c3c4cc5c(cc4ccc23)OCO5)c1OC", "note": "[chelerythrine, reference compound]", "values": [
      {"measurement": "IC50", "setting": "human NUDT5; read-out: MG assay IC50", "value": "> 100000", "unit": "nM"}
    ]},
    {"smiles": "O=c1cc(-c2ccccc2)oc2ccccc12", "note": "[flavone, reference compound]", "values": [
      {"measurement": "IC50", "setting": "human NUDT5; read-out: MG assay IC50", "value": "> 100000", "unit": "nM"}
    ]},
    {"smiles": "O=C(O)/C=C/c1ccc(O)cc1", "note": "[p-coumaric acid, reference compound]", "values": [
      {"measurement": "IC50", "setting": "human NUDT5; read-out: MG assay IC50", "value": "> 100000", "unit": "nM"}
    ]}
  ]
}
